These results are taken from ChEMBL document CHEMBL4765244, “Synthesis, bioconversion, pharmacokinetic and pharmacodynamic evaluation of N-isopropyl-oxy-carbonyloxymethyl prodrugs of CZh-226, a potent and selective PAK4 inhibitor” (Eur J Med Chem, 2020).

Data set [1] can be described thus: Chemical stability of the compound in pH 7.4 PBS buffer assessed as compound remaining measured after 2 hrs by HPLC analysis. The format is physicochemical. The conditions noted are these: read-out: Stabilty.
Data set [2] can be described thus: Chemical stability of the compound in pH 1.2 simulated gastric fluid buffer assessed as compound remaining measured after 2 hrs by HPLC analysis. The format is physicochemical.
Data set [3] is described as follows: Chemical stability of the compound in pH 6.8 simulated intestinal fluid assessed as compound remaining measured after 2 hrs by HPLC analysis. Type of data set: physicochemical.
Data set [4] is described as follows: Stability of the compound in human plasma assessed as compound remaining measured within 120 mins at 37 degC by HPLC analysis. The conditions noted are these: read-out: Stabilty. The format is ADME, cell-free.
Data set [5] is described as follows: Prodrug conversion in human plasma assessed as release of active metabolite (R)-(6-chloro-4-(5-cyclopropyl-1H-pyrazol-3-ylamino)quinazolin-2-yl)(3-methylpiperazin-1-yl)methanone hydrochloride measured within 120 mins at 37 degC by HPLC analysis. The format is ADME, cell-free. As to conditions: 2 h.
Data set [6] can be described thus: Stability of the compound in rat liver S9 fraction assessed as compound remaining measured after 60 mins at 37 degC by LC-MS/MS analysis. Type of data set: ADME, subcellular. The conditions noted are these: read-out: Stabilty.
Data set [7] in a line: Initial plasma concentration in Wistar rat assessed as (R)-(6-chloro-4-(5-cyclopropyl-1H-pyrazol-3-ylamino)quinazolin-2-yl)(3-methylpiperazin-1-yl)methanone hydrochloride at 2.5 mg/kg, iv measured upto 24 hrs by LC/MS/MS analysis. Type of data set: ADME, organism-based. As to conditions: in vivo.
Data set [8] is described as follows: AUC in Wistar rat assessed as (R)-(6-chloro-4-(5-cyclopropyl-1H-pyrazol-3-ylamino)quinazolin-2-yl)(3-methylpiperazin-1-yl)methanone hydrochloride at 13.5 mg/kg, po measured upto 24 hrs by LC/MS/MS analysis. The format is ADME, organism-based. Set-up: route oral, dose 13.5 mg/kg, time <=24. The conditions noted are these: in vivo.
Data set [9] in a line: AUC (0 to infinity) in Wistar rat assessed as (R)-(6-chloro-4-(5-cyclopropyl-1H-pyrazol-3-ylamino)quinazolin-2-yl)(3-methylpiperazin-1-yl)methanone hydrochloride at 13.5 mg/kg, po measured upto 24 hrs by LC/MS/MS analysis. Type of data set: ADME, organism-based. Set-up: route oral, dose 13.5 mg/kg, time <=24. As to conditions: in vivo.
A short description of data set [10]: Half life in Wistar rat assessed as (R)-(6-chloro-4-(5-cyclopropyl-1H-pyrazol-3-ylamino)quinazolin-2-yl)(3-methylpiperazin-1-yl)methanone hydrochloride at 13.5 mg/kg, po measured upto 24 hrs by LC/MS/MS analysis. The format is ADME, organism-based. The conditions noted are these: in vivo.
The nature of data set [11]: Tmax in Wistar rat assessed as (R)-(6-chloro-4-(5-cyclopropyl-1H-pyrazol-3-ylamino)quinazolin-2-yl)(3-methylpiperazin-1-yl)methanone hydrochloride at 13.5 mg/kg, po measured upto 24 hrs by LC/MS/MS analysis. The format is ADME, organism-based. The conditions noted are these: in vivo.
The nature of data set [12]: Cmax in Wistar rat assessed as (R)-(6-chloro-4-(5-cyclopropyl-1H-pyrazol-3-ylamino)quinazolin-2-yl)(3-methylpiperazin-1-yl)methanone hydrochloride at 13.5 mg/kg, po measured upto 24 hrs by LC/MS/MS analysis. The format is ADME, organism-based. Set-up: route oral, dose 13.5 mg/kg, time <=24. As to conditions: in vivo.
The nature of data set [13]: Oral bioavailability in Wistar rat assessed as (R)-(6-chloro-4-(5-cyclopropyl-1H-pyrazol-3-ylamino)quinazolin-2-yl)(3-methylpiperazin-1-yl)methanone hydrochloride at 13.5 mg/kg measured upto 24 hrs by LC/MS/MS analysis. The format is ADME, organism-based. The conditions noted are these: in vivo.
Data set [14] is described as follows: Volume of distribution in Wistar rat assessed as (R)-(6-chloro-4-(5-cyclopropyl-1H-pyrazol-3-ylamino)quinazolin-2-yl)(3-methylpiperazin-1-yl)methanone hydrochloride at 2.5 mg/kg, iv measured upto 24 hrs by LC/MS/MS analysis. Type of data set: ADME, organism-based. The conditions noted are these: in vivo.
The nature of data set [15]: Half life in Wistar rat assessed as (R)-(6-chloro-4-(5-cyclopropyl-1H-pyrazol-3-ylamino)quinazolin-2-yl)(3-methylpiperazin-1-yl)methanone hydrochloride at 2.5 mg/kg, iv measured upto 24 hrs by LC/MS/MS analysis. Type of data set: ADME, organism-based. As to conditions: in vivo.
The nature of data set [16]: AUC (0 to infinity) in Wistar rat assessed as (R)-(6-chloro-4-(5-cyclopropyl-1H-pyrazol-3-ylamino)quinazolin-2-yl)(3-methylpiperazin-1-yl)methanone hydrochloride at 2.5 mg/kg, iv measured upto 24 hrs by LC/MS/MS analysis. The format is ADME, organism-based. Set-up: route intravenous, dose 2.5 mg/kg, time <=24. The conditions noted are these: in vivo.
Data set [17] in a line: AUC in Wistar rat assessed as (R)-(6-chloro-4-(5-cyclopropyl-1H-pyrazol-3-ylamino)quinazolin-2-yl)(3-methylpiperazin-1-yl)methanone hydrochloride at 2.5 mg/kg, iv measured upto 24 hrs by LC/MS/MS analysis. The format is ADME, organism-based. Set-up: route intravenous, dose 2.5 mg/kg, time <=24. As to conditions: in vivo.
Data set [18] deals with HCT-116. Nature of the data set: Antitumor activity against human HCT-116 cells xenografted in BABL/c nude mouse assessed as reduction in tumor weight at 25 mg/kg, po qd measured after 21 days. The format is functional. As to conditions: HCT-116, po, 504 h, time 21 day. Background: A xenograft is tissue or cells of one species grown in another, often human tumour cells in immunodeficient mice.

For data set [19], the system named is HCT-116. The data set is described as follows: Antitumor activity against human HCT-116 cells xenografted in BABL/c nude mouse assessed as reduction in tumor weight at 50 mg/kg, po qd measured after 21 days. Type of data set: functional. The conditions noted are these: HCT-116, po, 504 h, time 21 day.
For data set [20], the system named is B16-F10. Nature of the data set: Antitumor activity against mouse B16F10 cells xenografted in BABL/c nude mouse assessed as reduction in tumor volume at 25 mg/kg, po qd measured after 21 days. Type of data set: functional. As to conditions: 504 h, time 21 day.
Data set [21] concerns B16-F10. The data set is described as follows: Antitumor activity against mouse B16F10 cells xenografted in BABL/c nude mouse assessed as reduction in tumor volume at 50 mg/kg, po qd measured after 21 days. Type of data set: functional. As to conditions: 504 h, time 21 day.
Data set [22] can be described thus: Toxicity in […] nude mouse harboring human HCT-116 cells assessed as body weight loss at 25 to 50 mg/kg, po qd measured after 21 days relative to control. The format is organism-based. The conditions noted are these: in vivo, 504 h, dose 25-50 mg/kg, time 21 day.
The nature of data set [23]: Toxicity in […] nude mouse harboring mouse B16F10 cells assessed as body weight loss at 25 to 50 mg/kg, po qd measured after 21 days relative to control. Type of data set: organism-based. The conditions noted are these: in vivo, 504 h, dose 25-50 mg/kg, time 21 day.

Structures are written as SMILES.

As a reminder, the AUC is concentration integrated over time. What is called Tmax is the time from dosing to the highest level. The term Cmax denotes the highest concentration seen after dosing. Usually Vd stands for a proportionality between amount in the body and measured concentration, not a real space. One may read the inhibition in vivo as the change of the read-out against control, counted positive when it falls. Consider `CC(C)C(=O)OCOC(=O)N1CCN(C(=O)c2nc(Nc3cc(C4CC4)[nH]n3)c3cc(Cl)ccc3n2)C[C@H]1C`, for which the values for the remaining at 2 h in data set [1] and in data set [4] were 93.5% and 6.1%, respectively. The values for the Stability in [2] and in [3] were 90% and 46%, respectively. Besides, the Drug metabolism in [5] came out at 89.9%. In addition, in data set [6], the remaining at 1 h came out at 14%. The C0 in data set [7] was 4130 ng/mL. Besides, the AUC in [8] came out at 129.7 ng·h/mL; in data set [9] it was 470.8 ng·h/mL; in data set [16], 1173.5 ng·h/mL; in data set [17], 1124.8 ng·h/mL. The t1/2 in data set [10] stood at 20.1 h; in data set [15], 7.1 h. Moreover, the Tmax in data set [11] was found to be 4.98 min. The Cmax in data set [12] was 31.5 ng/mL. For the same molecule, the F in [13] was 7.55%. Further, in data set [14], the volume of distribution (Vd) is 21.6 L/kg. Moreover, the inhibition in vivo at 25 mg/kg in the data set on HCT-116 [18] amounted to 54%; with B16-F10 [20], 51%. In addition, the inhibition in vivo at 50 mg/kg in the data set on HCT-116 [19] stood at 65%; in the data set on B16-F10 [21] it was 63%. Moreover, the Activity result in [22] and in [23] was “Non-Toxic” in each case.
